Measured values taken from patent US12497365B2, “4-pyridinyl formamide compound or derivative thereof, preparation method therefor, herbicidal composition and use thereof” (Qingdao Kingagroot Chemical Compound Co., Ltd., priority 2019, dated 2025).

Experiments:
Assay in all cases: Weeding effect in post-emergence stage
Assay type in all cases: in vivo
Settings in all cases: active ingredient 2000 g/ha, 3 weeks after application, fresh weight control rate
Abutilon theophrasti = test system: Abutilon theophrasti
Outline: (§1)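 Pot-grown weeds at the 2-3 leaf stage receive a tower spray of test compound at 2000, 1000, 500, 250 or 125 g/ha, formulated in acetone with Tween 80 and methyl oleate synergist. Fresh weight reduction is rated on an activity scale 3 weeks later.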

[1] = test system: Amaranthus retroflexus L.
Outline: as §1

Chenopodium album = test system: Chenopodium album
Outline: as §1

Descurainia sophia = test system: Descurainia sophia
Outline: as §1

CN(C)c1c(C(=O)Nc2nnnn2C)ccnc1-c1ccc(F)cc1 [Compound 1-208]
Weeding effect, activity level (growth control rate), Abutilon theophrasti (Abutilon theophrasti): 5 (Level 5: growth control rate is above 85%) | Weeding effect, activity level (growth control rate), Amaranthus retroflexus L. [1]: 5 (Level 5: growth control rate is above 85%) | Weeding effect, activity level (growth control rate), Chenopodium album (Chenopodium album): 5 (Level 5: growth control rate is above 85%) | Weeding effect, activity level (growth control rate), Descurainia sophia (Descurainia sophia): 5 (Level 5: growth control rate is above 85%)

CC(C)=NOc1c(C(=O)Nc2nnnn2C)ccnc1-c1ccc(F)cc1 [Compound 1-209]
Weeding effect, activity level (growth control rate), Abutilon theophrasti (Abutilon theophrasti): 5 (Level 5: growth control rate is above 85%) | Weeding effect, activity level (growth control rate), Amaranthus retroflexus L. [1]: 5 (Level 5: growth control rate is above 85%) | Weeding effect, activity level (growth control rate), Chenopodium album (Chenopodium album): 5 (Level 5: growth control rate is above 85%) | Weeding effect, activity level (growth control rate), Descurainia sophia (Descurainia sophia): 5 (Level 5: growth control rate is above 85%)

CCc1c(C(=O)Nc2nnnn2C)ccnc1-c1ccc(F)cc1 [Compound 1-210]
Weeding effect, activity level (growth control rate), Abutilon theophrasti (Abutilon theophrasti): 5 (Level 5: growth control rate is above 85%) | Weeding effect, activity level (growth control rate), Amaranthus retroflexus L. [1]: 5 (Level 5: growth control rate is above 85%) | Weeding effect, activity level (growth control rate), Chenopodium album (Chenopodium album): 5 (Level 5: growth control rate is above 85%) | Weeding effect, activity level (growth control rate), Descurainia sophia (Descurainia sophia): 5 (Level 5: growth control rate is above 85%)

Cn1nnnc1NC(=O)c1ccnc(-c2ccc(F)cc2)c1SCCl [Compound 1-211]
Weeding effect, activity level (growth control rate), Abutilon theophrasti (Abutilon theophrasti): 5 (Level 5: growth control rate is above 85%) | Weeding effect, activity level (growth control rate), Amaranthus retroflexus L. [1]: 5 (Level 5: growth control rate is above 85%) | Weeding effect, activity level (growth control rate), Chenopodium album (Chenopodium album): 5 (Level 5: growth control rate is above 85%) | Weeding effect, activity level (growth control rate), Descurainia sophia (Descurainia sophia): 5 (Level 5: growth control rate is above 85%)

Cn1nnnc1NC(=O)c1ccnc(-c2ccc(F)cc2)c1[N+](=O)[O-] [Compound 1-212]
Weeding effect, activity level (growth control rate), Abutilon theophrasti (Abutilon theophrasti): 5 (Level 5: growth control rate is above 85%) | Weeding effect, activity level (growth control rate), Amaranthus retroflexus L. [1]: 5 (Level 5: growth control rate is above 85%) | Weeding effect, activity level (growth control rate), Chenopodium album (Chenopodium album): 5 (Level 5: growth control rate is above 85%) | Weeding effect, activity level (growth control rate), Descurainia sophia (Descurainia sophia): 5 (Level 5: growth control rate is above 85%)

Cn1nnnc1NC(=O)c1ccnc(-c2ccc(F)cc2)c1C#N [Compound 1-213]
Weeding effect, activity level (growth control rate), Abutilon theophrasti (Abutilon theophrasti): 5 (Level 5: growth control rate is above 85%) | Weeding effect, activity level (growth control rate), Amaranthus retroflexus L. [1]: 5 (Level 5: growth control rate is above 85%) | Weeding effect, activity level (growth control rate), Chenopodium album (Chenopodium album): 5 (Level 5: growth control rate is above 85%) | Weeding effect, activity level (growth control rate), Descurainia sophia (Descurainia sophia): 5 (Level 5: growth control rate is above 85%)

COCc1c(C(=O)Nc2nnnn2C)ccnc1-c1ccc(F)cc1 [Compound 1-214]
Weeding effect, activity level (growth control rate), Abutilon theophrasti (Abutilon theophrasti): 5 (Level 5: growth control rate is above 85%) | Weeding effect, activity level (growth control rate), Amaranthus retroflexus L. [1]: 5 (Level 5: growth control rate is above 85%) | Weeding effect, activity level (growth control rate), Chenopodium album (Chenopodium album): 5 (Level 5: growth control rate is above 85%) | Weeding effect, activity level (growth control rate), Descurainia sophia (Descurainia sophia): 5 (Level 5: growth control rate is above 85%)

COC(C)c1c(C(=O)Nc2nnnn2C)ccnc1-c1ccc(F)cc1 (centres unmarked) [Compound 1-215]
Weeding effect, activity level (growth control rate), Abutilon theophrasti (Abutilon theophrasti): 5 (Level 5: growth control rate is above 85%) | Weeding effect, activity level (growth control rate), Amaranthus retroflexus L. [1]: 5 (Level 5: growth control rate is above 85%) | Weeding effect, activity level (growth control rate), Chenopodium album (Chenopodium album): 5 (Level 5: growth control rate is above 85%) | Weeding effect, activity level (growth control rate), Descurainia sophia (Descurainia sophia): 5 (Level 5: growth control rate is above 85%)

CCC(OC)c1c(C(=O)Nc2nnnn2C)ccnc1-c1ccc(F)cc1 (centres unmarked) [Compound 1-216]
Weeding effect, activity level (growth control rate), Abutilon theophrasti (Abutilon theophrasti): 5 (Level 5: growth control rate is above 85%) | Weeding effect, activity level (growth control rate), Amaranthus retroflexus L. [1]: 5 (Level 5: growth control rate is above 85%) | Weeding effect, activity level (growth control rate), Chenopodium album (Chenopodium album): 5 (Level 5: growth control rate is above 85%) | Weeding effect, activity level (growth control rate), Descurainia sophia (Descurainia sophia): 5 (Level 5: growth control rate is above 85%)

COCCc1c(C(=O)Nc2nnnn2C)ccnc1-c1ccc(F)cc1 [Compound 1-217]
Weeding effect, activity level (growth control rate), Abutilon theophrasti (Abutilon theophrasti): 5 (Level 5: growth control rate is above 85%) | Weeding effect, activity level (growth control rate), Amaranthus retroflexus L. [1]: 5 (Level 5: growth control rate is above 85%) | Weeding effect, activity level (growth control rate), Chenopodium album (Chenopodium album): 5 (Level 5: growth control rate is above 85%) | Weeding effect, activity level (growth control rate), Descurainia sophia (Descurainia sophia): 5 (Level 5: growth control rate is above 85%)

C=Cc1c(C(=O)Nc2nnnn2C)ccnc1-c1ccc(F)cc1 [Compound 1-218]
Weeding effect, activity level (growth control rate), Abutilon theophrasti (Abutilon theophrasti): 5 (Level 5: growth control rate is above 85%) | Weeding effect, activity level (growth control rate), Amaranthus retroflexus L. [1]: 5 (Level 5: growth control rate is above 85%) | Weeding effect, activity level (growth control rate), Chenopodium album (Chenopodium album): 5 (Level 5: growth control rate is above 85%) | Weeding effect, activity level (growth control rate), Descurainia sophia (Descurainia sophia): 5 (Level 5: growth control rate is above 85%)

C=CCc1c(C(=O)Nc2nnnn2C)ccnc1-c1ccc(F)cc1 [Compound 1-219]
Weeding effect, activity level (growth control rate), Abutilon theophrasti (Abutilon theophrasti): 5 (Level 5: growth control rate is above 85%) | Weeding effect, activity level (growth control rate), Amaranthus retroflexus L. [1]: 5 (Level 5: growth control rate is above 85%) | Weeding effect, activity level (growth control rate), Chenopodium album (Chenopodium album): 5 (Level 5: growth control rate is above 85%) | Weeding effect, activity level (growth control rate), Descurainia sophia (Descurainia sophia): 5 (Level 5: growth control rate is above 85%)

C#Cc1c(C(=O)Nc2nnnn2C)ccnc1-c1ccc(F)cc1 [Compound 1-220]
Weeding effect, activity level (growth control rate), Abutilon theophrasti (Abutilon theophrasti): 5 (Level 5: growth control rate is above 85%) | Weeding effect, activity level (growth control rate), Amaranthus retroflexus L. [1]: 5 (Level 5: growth control rate is above 85%) | Weeding effect, activity level (growth control rate), Chenopodium album (Chenopodium album): 5 (Level 5: growth control rate is above 85%) | Weeding effect, activity level (growth control rate), Descurainia sophia (Descurainia sophia): 5 (Level 5: growth control rate is above 85%)

Cn1nnnc1NC(=O)c1ccnc(-c2ccc(F)cc2)c1C1CC1 [Compound 1-221]
Weeding effect, activity level (growth control rate), Abutilon theophrasti (Abutilon theophrasti): 5 (Level 5: growth control rate is above 85%) | Weeding effect, activity level (growth control rate), Amaranthus retroflexus L. [1]: 5 (Level 5: growth control rate is above 85%) | Weeding effect, activity level (growth control rate), Chenopodium album (Chenopodium album): 5 (Level 5: growth control rate is above 85%) | Weeding effect, activity level (growth control rate), Descurainia sophia (Descurainia sophia): 5 (Level 5: growth control rate is above 85%)
